For series [1], the target named is T1, recombinant CD73 (Homo sapiens (Human), UniProt P21589). The experiment in a line: Assay 2: Inhibition of the CD73 enzyme in vitro (0.05 nM CD73, 1 hour 37° C., Malachite Green). In kind it is biochemical. The following applies: 0.05 nM CD73, 50 μM AMP, 1 hour at 37° C. The gist of the method: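 Soluble recombinant CD73 reactions ran 1 hour at 37° C. Malachite Green was then added, and absorbance at 630 nm was read after 5 min at room temperature. Inorganic phosphate was quantified from a phosphate standard curve.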
Target sequence in this assay (P21589 27-547): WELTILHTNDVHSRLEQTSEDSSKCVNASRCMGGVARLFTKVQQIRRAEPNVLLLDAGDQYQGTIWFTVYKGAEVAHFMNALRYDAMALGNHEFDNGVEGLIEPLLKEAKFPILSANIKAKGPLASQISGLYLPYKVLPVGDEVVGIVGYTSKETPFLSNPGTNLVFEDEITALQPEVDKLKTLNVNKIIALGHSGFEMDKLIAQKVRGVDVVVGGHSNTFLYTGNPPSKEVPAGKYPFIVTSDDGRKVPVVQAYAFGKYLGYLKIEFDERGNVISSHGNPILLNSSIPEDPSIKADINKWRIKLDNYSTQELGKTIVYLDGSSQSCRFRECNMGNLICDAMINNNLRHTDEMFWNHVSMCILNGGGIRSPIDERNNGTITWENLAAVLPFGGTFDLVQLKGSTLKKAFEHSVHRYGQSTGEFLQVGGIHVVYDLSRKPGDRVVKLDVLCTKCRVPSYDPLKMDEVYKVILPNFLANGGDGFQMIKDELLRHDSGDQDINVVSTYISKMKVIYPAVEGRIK

The subject of a further series is CT26 cells. Kind of series: CT26 subcutaneous tumor model in Balb/c mice, tumor volume. In kind it is in vivo, mouse. The following applies: 100 mg/kg orally BID from day one post implant. The protocol:
Compounds of the invention show potent anti-tumor effects, evidenced in reducing tumor volume in a mouse model. In one model, EG7 cells were implanted subcutaneously into C57BL/6 mice. Compound 9 or vehicle was orally administered BID starting day one post implant (N=10 per group). […] In another model, EG7 cells were implanted subcutaneously into C57BL/6 mice. Compound 9 was orally administered BID (100 mg/kg) starting day one post implant (N=10 per group). Vehicle was orally administered BID starting day one post implant (N=20) until day five post implant, at which time, mice were randomized by tumor volume into two groups. Compound 9 (100 mg/kg) or vehicle was orally administered BID to N=10 per group starting day six post implant. […] FIGS. 13B-D show individual replications of this measurement for each dosing. FIG. 13B is vehicle. FIG. 13C is dosing of Compound 9 started on day 1. FIG. 13D is Compound 9 started on day 6. In another model, CT26 cells were implanted subcutaneously into Balb/c mice. 100 mg/kg Compound 9 or vehicle was orally administered BID starting day one post implant (N=10 per group).

The next series deals with human CD39 (Homo sapiens (Human), UniProt P49961). Kind of series: Cell surface CD39 activity, K562 cells expressing human CD39, Kinase-Glo. Type of series: cell-based. The protocol:
(§1) Using Compound 9, the activity of cell surface CD39 was assessed using K562 cells expressing human CD39 and Kinase-Glo. Activity of recombinant human ENTPD2 and ENTPD3 was assessed using a malachite green assay. […] Compound 9 was screened in the Eurofins Safety Screen Panel and the Eurofins Express Diversity Kinase Profile Panel. In the Safety Panel, 1/87 targets were inhibited at >50% at 10 μM of Compound 9. The PDE3 enzyme was inhibited at 59%.
Background: Kinase-Glo reads ATP consumption through a luciferase reaction.

For another series, the target named is recombinant human ENTPD2 (Homo sapiens (Human), UniProt Q9Y5L3). The experiment in a line: Recombinant human ENTPD2 malachite green assay. Type of series: biochemical. The protocol: as §1
Chain of recombinant human ENTPD2 (Q9Y5L3 whole entry): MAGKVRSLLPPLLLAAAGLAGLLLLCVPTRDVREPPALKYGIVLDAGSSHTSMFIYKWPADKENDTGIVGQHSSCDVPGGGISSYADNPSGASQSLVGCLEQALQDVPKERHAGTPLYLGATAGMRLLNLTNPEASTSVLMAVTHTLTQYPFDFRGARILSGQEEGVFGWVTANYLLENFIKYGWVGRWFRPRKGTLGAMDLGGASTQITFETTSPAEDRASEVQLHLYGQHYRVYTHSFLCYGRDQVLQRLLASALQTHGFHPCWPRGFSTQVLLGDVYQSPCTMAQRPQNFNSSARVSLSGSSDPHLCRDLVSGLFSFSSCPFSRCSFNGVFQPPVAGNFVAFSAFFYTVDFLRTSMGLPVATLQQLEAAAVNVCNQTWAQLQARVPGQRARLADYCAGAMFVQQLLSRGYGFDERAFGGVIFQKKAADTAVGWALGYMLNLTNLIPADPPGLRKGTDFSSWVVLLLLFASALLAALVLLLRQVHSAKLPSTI
In series [2] the test system is Eurofins Safety Screen Panel (87 targets). The experiment in a line: Eurofins Safety Screen Panel. The following applies: 10 μM. The protocol:
as §1

The subject of the next series is PDE3 enzyme. The experiment in a line: Eurofins Safety Screen Panel: PDE3. In kind it is biochemical. The following applies: 10 μM. As for the experimental part:
as §1

The target in series [3] is Eurofins Express Diversity Kinase Profile Panel (45 targets). The experiment in a line: Eurofins Express Diversity Kinase Profile Panel. In kind it is biochemical. The protocol:
as §1

For another series, the system named is EG7 cells. The experiment in a line: Viability of EG7 cells, CellTiter-Glo. In kind it is cell-based, mouse. The following applies: 100 μM, 3 days. The protocol: (§2) Viability of EG7 and A375 cells treated with 100 μM Compound 9 was measured using CellTiter-Glo after 3 days. Proliferation of human CD8+ T cells was measured by flow cytometry after 4 days of treatment with 100 μM Compound 9 using CellTrace CFSE Cell Proliferation Kit.
In general terms: In ATP-based viability assays light output follows the ATP content of the culture.

The subject of a further series is A375 cells. Kind of series: Viability of A375 cells, CellTiter-Glo. In kind it is cell-based, human. The following applies: 100 μM, 3 days. As for the experimental part:
as §2

A further series concerns Human CD8+ T cells. The experiment in a line: Proliferation of human CD8+ T cells, CellTrace CFSE flow cytometry. In kind it is cell-based. The following applies: 100 μM, 4 days. As for the experimental part:
as §2
A general note: A flow cytometer gives signals particle by particle.

The target of series [4] is T1, recombinant CD73. Kind of series: Potency against recombinant CD73, malachite green assay. Type of series: biochemical. As for the experimental part:
(§3) The potency of Compound 9 was evaluated against recombinant CD73 and CD73-expressing SK-MEL-28 cells using a malachite green assay. Inhibition of CD73 in plasma was measured using LC/MS to assess conversion of ^15N5-AMP into ^15N5-ADO. FIG. 4A indicates the nanomolar inhibition of CD73 cells from both human and mouse sources. […] Inhibition of CD73 in plasma was measured using LC/MS to assess conversion of ^15N5-AMP into ^15N5-ADO.
Target sequence in this assay (P21589 27-574): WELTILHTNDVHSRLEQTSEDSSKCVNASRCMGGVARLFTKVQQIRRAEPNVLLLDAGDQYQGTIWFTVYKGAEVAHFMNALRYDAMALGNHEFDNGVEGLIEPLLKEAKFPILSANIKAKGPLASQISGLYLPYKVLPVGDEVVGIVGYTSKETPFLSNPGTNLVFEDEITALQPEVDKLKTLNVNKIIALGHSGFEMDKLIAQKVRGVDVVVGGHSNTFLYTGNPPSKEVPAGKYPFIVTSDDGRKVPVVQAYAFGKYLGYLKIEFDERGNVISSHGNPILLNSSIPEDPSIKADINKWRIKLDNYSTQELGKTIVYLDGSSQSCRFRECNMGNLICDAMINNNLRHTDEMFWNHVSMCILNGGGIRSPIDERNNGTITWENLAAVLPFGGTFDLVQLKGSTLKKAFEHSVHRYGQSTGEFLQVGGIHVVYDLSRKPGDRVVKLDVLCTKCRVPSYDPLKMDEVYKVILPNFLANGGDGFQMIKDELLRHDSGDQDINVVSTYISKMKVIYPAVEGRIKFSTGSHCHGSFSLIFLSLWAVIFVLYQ

Series [5] deals with CD73-expressing SK-MEL-28 cells (Homo sapiens (Human), UniProt P21589). The experiment in a line: Human CD73 cell surface assay, CD73-expressing SK-MEL-28 cells, malachite green. In kind it is cell-based. As for the experimental part:
as §3

Another series has as its target human plasma CD73 (Homo sapiens (Human), UniProt P21589). The experiment in a line: Inhibition of CD73 in human plasma, LC/MS conversion of 15N5-AMP into 15N5-ADO. Type of series: biochemical. As for the experimental part:
as §3

The next series deals with mouse plasma CD73 (Mus musculus (Mouse), UniProt Q61503). The experiment in a line: Oral dosing pharmacodynamics: CD73 inhibition in plasma of dosed mice. In kind it is in vivo. The following applies: single oral dose 50 mg/kg, plasma 2 hours post dose. The protocol:
Single dose Compound 9 (50 mg/kg) was administered orally to mice and plasma was collected at indicated time points. Compound 9 levels were measured by LC/MS. Plasma was harvested from mice 2 hours post dose and spiked with ^15N5-AMP and a TNAP inhibitor. ^15N5-ADO levels were measured by LC/MS.

For orientation: IC50 means the concentration needed to halve the response being measured. The term inhibition denotes the relative decrease from the control value, in per cent.

Chain of mouse plasma CD73 (Q61503 29-576): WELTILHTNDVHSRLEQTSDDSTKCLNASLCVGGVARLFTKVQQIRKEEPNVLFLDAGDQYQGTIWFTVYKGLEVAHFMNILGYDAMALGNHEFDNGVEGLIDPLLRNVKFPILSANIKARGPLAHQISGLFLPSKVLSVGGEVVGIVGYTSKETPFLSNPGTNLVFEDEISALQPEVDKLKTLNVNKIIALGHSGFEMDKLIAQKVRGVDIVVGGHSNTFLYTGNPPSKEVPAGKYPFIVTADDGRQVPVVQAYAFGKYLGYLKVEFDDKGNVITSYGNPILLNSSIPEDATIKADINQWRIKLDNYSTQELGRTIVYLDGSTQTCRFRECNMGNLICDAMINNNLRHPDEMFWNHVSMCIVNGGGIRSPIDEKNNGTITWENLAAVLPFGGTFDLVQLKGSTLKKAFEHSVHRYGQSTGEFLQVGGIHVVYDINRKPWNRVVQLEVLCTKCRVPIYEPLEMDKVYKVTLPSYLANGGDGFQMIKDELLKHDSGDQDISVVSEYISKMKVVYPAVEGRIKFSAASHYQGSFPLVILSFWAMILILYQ
Chain of human CD39 (P49961 whole entry): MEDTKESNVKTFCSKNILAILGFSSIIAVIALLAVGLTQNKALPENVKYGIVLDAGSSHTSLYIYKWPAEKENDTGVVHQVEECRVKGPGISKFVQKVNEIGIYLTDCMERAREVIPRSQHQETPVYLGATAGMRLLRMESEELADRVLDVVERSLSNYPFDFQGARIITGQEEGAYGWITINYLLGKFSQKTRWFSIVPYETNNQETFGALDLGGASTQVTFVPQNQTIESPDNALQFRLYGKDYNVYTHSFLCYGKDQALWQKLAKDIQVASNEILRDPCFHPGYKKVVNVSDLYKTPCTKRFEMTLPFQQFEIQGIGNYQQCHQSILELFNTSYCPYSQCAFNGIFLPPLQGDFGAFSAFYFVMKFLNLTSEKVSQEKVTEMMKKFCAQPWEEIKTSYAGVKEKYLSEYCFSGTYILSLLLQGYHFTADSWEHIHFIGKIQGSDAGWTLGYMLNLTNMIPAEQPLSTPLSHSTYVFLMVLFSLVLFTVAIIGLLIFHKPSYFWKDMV
Chain of CD73-expressing SK-MEL-28 cells (P21589 27-574): as the sequence (P21589 27-574) above
Chain of human plasma CD73 (P21589 27-574): as above

For the compound `C#C[C@@]1(O)[C@@H](COC(Cc2ccc(N3CCCNC3=O)cc2)(C(=O)O)C(=O)O)O[C@@H](n2cnc3c(N)nc(Cl)nc32)[C@@H]1O` [Compound 9, 2-(((2R,3S,4R,5R)-5-(6-amino-2-chloro-9H-purin-9-yl)-3-ethynyl-3,4-dihydroxytetrahydrofuran-2-yl)methoxy)-2-(4-(2-oxotetrahydropyrimidin-1 (2H)-yl)benzyl)malonic acid], the IC50 on recombinant CD73 [1] was 0.17 nM; at human CD39, more than 10000 nM; at recombinant human ENTPD2 it was more than 10000 nM; on recombinant CD73 [4], 0.17 nM; in series [5], 0.21 nM; at human plasma CD73 it was 0.38 nM. Besides, in the series on CT26 cells, the “tumor volume, CT26” value is “decrease in tumor volume compared to vehicle”. Further, in series [2], the “Safety Panel targets inhibited at >50%” value is given as 1/87. In addition, the PDE3 enzyme inhibition in the series with PDE3 enzyme is given as 59%. Besides, the “Kinase Panel targets inhibited at >50%” value in series [3] is “none of the 45 targets”. Also, the “% cell survival of EG7 cells” value with EG7 cells is on record as “comparable % cell survival”. Besides, in the series with A375 cells, the “% cell survival of A375 cells” value is recorded as “comparable % cell survival”. For the same compound, in the series on Human CD8+ T cells, the “% divided cells of human CD8+ T cells” value is “comparable % divided cells”. The same compound came in with an inhibition at 50 mg/kg against mouse plasma CD73 of 92%.
